Where two headings read alike, the source gives them in different places.
Tested on: HCC827 cells (EGFR Exon19 del, non-small cell lung cancer cells)
Assay: Cell viability assay (WST/CCK8), HCC827 cells
Format: cell-based
Settings: Homo sapiens, HCC827, 72 h, HCC827 (Exon19 Del), 72 hours, WST (CCK8), read-out: IC50 (half inhibitory concentration)
From the text: The cell lines with abnormal EGFR expression used are as follows: • HCC827 cells (EGFR Exon19 del, non-small cell lung cancer cells); • PC9 cells (EGFR Exon 19 del, non-small cell lung cancer cells); • PC9BracA1 (EGFR Exon 19 del+T790M, non-small cell lung cancer cells) • H1975 (EGFR Exon T790M+L858R mutation, non-small cell lung cancer cell line) • BT474 cells (HER2 positive breast cancer cells)
All of the half inhibitory concentrations (IC50) of these compounds of the present invention were determined with WST reagent from Fuyuan Biotec Company. The specific experiment procedures are as follows: Cancer cells were planted in 96-well-plate at the density of 3 000 cells per well with 100 μL RPMI1640 completed culture medium. In the next day, compounds with indicated concentrations were added to the cells, DMSO was used as the negative control and the EGFR TKIs were used to treat cells as the positive groups. After 72 hours drug treatment, cell viability was measured by using the WST reagent following the instructions.
The cells were treated with the gradient concentration of these compounds (the maximum concentration: 10 μM; 3-fold dilution ratio, 10 concentration gradients) for 72 hours and then incubated with the WST (CCK8) reagent to determine the cell viability.

[1] = Table 3, poziotinib-based compounds

| Compound | IC50 [1] | IC50 |
| --- | --- | --- |
| COc1cc2ncnc(Nc3ccc(Cl)c(Cl)c3F)c2cc1OC1CCN(C(=O)CCCCCCC(=O)N[C@H](C(=O)N2C[C@H](O)C[C@H]2C(=O)NCc2ccc(-c3scnc3C)cc2)C(C)(C)C)CC1 [SIAIS249022, (2S,4R)-1-((S)-2-(8-(4-((4-((3,4-dichloro-2-fluorophenyl)amino)-7-methoxyquinazolin-6-yl)oxy)piperidin-1-yl)-8-oxooctanamido)-3,3-dimethylbutanoyl)-4-hydroxy-N-(4-(4-methylthiazol-5-yl)benzyl)pyrrolidine-2-carboxamide] | 40 nM | – |
| COc1cc2ncnc(Nc3ccc(Cl)c(Cl)c3F)c2cc1OC1CCN(C(=O)COCCOCC(=O)N[C@H](C(=O)N2C[C@H](O)C[C@H]2C(=O)NCc2ccc(-c3scnc3C)cc2)C(C)(C)C)CC1 [SIAIS249024, (2S,4R)-1-((S)-2-(2-(2-(2-(4-((4-((3,4-dichloro-2-fluorophenyl)amino)-7-methoxyquinazolin-6-yl)oxy)piperidin-1-yl)-2-oxoethoxy)ethoxy)acetamido)-3,3-dimethylbutanoyl)-4-hydroxy-N-(4-(4-methylthiazol-5-yl)benzyl)pyrrolidine-2-carboxamide] | 174 nM | – |
| COc1cc2ncnc(Nc3ccc(Cl)c(Cl)c3F)c2cc1OC1CCN(C(=O)CCOCCOCCC(=O)N[C@H](C(=O)N2C[C@H](O)C[C@H]2C(=O)NCc2ccc(-c3scnc3C)cc2)C(C)(C)C)CC1 [SIAIS249025, (2S,4R)-1-((S)-2-(3-(2-(3-(4-((4-((3,4-dichloro-2-fluorophenyl)amino)-7-methoxyquinazolin-6-yl)oxy)piperidin-1-yl)-3-oxopropoxy)ethoxy)propanamido)-3,3-dimethylbutanoyl)-4-hydroxy-N-(4-(4-methylthiazol-5-yl)benzyl)pyrrolidine-2-carboxamide] | 158 nM | – |
| COc1cc2ncnc(Nc3ccc(Cl)c(Cl)c3F)c2cc1OC1CCN(C(=O)CCOCCOCCOCCC(=O)N[C@H](C(=O)N2C[C@H](O)C[C@H]2C(=O)NCc2ccc(-c3scnc3C)cc2)C(C)(C)C)CC1 [SIAIS249026, (2S,4R)-1-((S)-2-(tert-butyl)-16-(4-((4-((3,4-dichloro-2-fluorophenyl)amino)-7-methoxyquinazolin-6-yl)oxy)piperidin-1-yl)-4,16-dioxo-7,10,13-trioxa-3-azahexadecan-1-oyl)-4-hydroxy-N-(4-(4-methylthiazol-5-yl)benzyl)pyrrolidine-2-carboxamide] | 266 nM | – |
| COc1cc2ncnc(Nc3ccc(Cl)c(Cl)c3F)c2cc1OC1CCN(C(=O)CCOCCOCCOCCOCCC(=O)N[C@H](C(=O)N2C[C@H](O)C[C@H]2C(=O)NCc2ccc(-c3scnc3C)cc2)C(C)(C)C)CC1 [SIAIS249027, (2S,4R)-1-((S)-2-(tert-butyl)-19-(4-((4-((3,4-dichloro-2-fluorophenyl)amino)-7-methoxyquinazolin-6-yl)oxy)piperidin-1-yl)-4,19-dioxo-7,10,13,16-tetraoxa-3-azanonadecan-1-oyl)-4-hydroxy-N-(4-(4-methylthiazol-5-yl)benzyl)pyrrolidine-2-carboxamide] | 400 nM | – |
| COc1cc2ncnc(Nc3ccc(Cl)c(Cl)c3F)c2cc1OC1CCN(C(=O)CCOCCNc2cccc3c2C(=O)N(C2CCC(=O)NC2=O)C3=O)CC1 (stereo not shown) [SIAIS249029, 4-((2-(3-(4-((4-((3,4-dichloro-2-fluorophenyl)amino)-7-methoxyquinazolin-6-yl)oxy)piperidin-1-yl)-3-oxopropoxy)ethyl)amino)-2-(2,6-dioxopiperidin-3-yl)isoindoline-1,3-dione] | 80 nM | – |
| COc1cc2ncnc(Nc3ccc(Cl)c(Cl)c3F)c2cc1OC1CCN(C(=O)CCOCCOCCNc2cccc3c2C(=O)N(C2CCC(=O)NC2=O)C3=O)CC1 (stereo not shown) [SIAIS249030, 4-((2-(2-(3-(4-((4-((3,4-dichloro-2-fluorophenyl)amino)-7-methoxyquinazolin-6-yl)oxy)piperidin-1-yl)-3-oxopropoxy)ethoxy)ethyl)amino)-2-(2,6-dioxopiperidin-3-yl)isoindoline-1,3-dione] | 6.3 nM | – |
| COc1cc2ncnc(Nc3ccc(Cl)c(Cl)c3F)c2cc1OC1CCN(C(=O)CCOCCOCCOCCOCCNc2cccc3c2C(=O)N(C2CCC(=O)NC2=O)C3=O)CC1 (stereo not shown) [SIAIS249032, 4-((15-(4-((4-((3,4-dichloro-2-fluorophenyl)amino)-7-methoxyquinazolin-6-yl)oxy)piperidin-1-yl)-15-oxo-3,6,9,12-tetraoxapentadecyl)amino)-2-(2,6-dioxopiperidin-3-yl)isoindoline-1,3-dione] | 11 nM | – |
| COc1cc2ncnc(Nc3ccc(F)c(Cl)c3)c2cc1NC(=O)/C=C/CN1CCN(C(=O)CCOCCOCCOCCNc2cccc3c2C(=O)N(C2CCC(=O)NC2=O)C3=O)CC1 (stereo not shown) [SIAIS249047, (E)-N-(4-((3-chloro-4-fluorophenyl)amino)-7-methoxyquinazolin-6-yl)-4-(4-(3-(2-(2-(2-((2-(2,6-dioxopiperidin-3-yl)-1,3-dioxoisoindolin-4-yl)amino)ethoxy)ethoxy)ethoxy)propanoyl)piperazin-1-yl)but-2-enamide] | – | 23.6 nM |
| COc1cc2ncnc(Nc3ccc(F)c(Cl)c3)c2cc1NC(=O)/C=C/CN1CCN(C(=O)COCCOCCOCCOCCSc2cccc3c2CN(C2CCC(=O)NC2=O)C3=O)CC1 (stereo not shown) [SIAIS262003, (E)-N-(4-((3-chloro-4-fluorophenyl)amino)-7-methoxyquinazolin-6-yl)-4-(4-(14-((2-(2,6-dioxopiperidin-3-yl)-1-oxoisoindolin-4-yl)thio)-3,6,9,12-tetraoxatetradecan-1-oyl)piperazin-1-yl)but-2-enamide] | – | 104 nM |

More lines, now with the values ahead:

| IC50 [1] | IC50 | Compound |
| --- | --- | --- |
| 75.4 nM | – | COc1cc2ncnc(Nc3ccc(Cl)c(Cl)c3F)c2cc1OC1CCN(C(=O)CCCCC(=O)N[C@H](C(=O)N2C[C@H](O)C[C@H]2C(=O)NCc2ccc(-c3scnc3C)cc2)C(C)(C)C)CC1 [SIAIS249021, (2S,4R)-1-((S)-2-(6-(4-((4-((3,4-dichloro-2-fluorophenyl)amino)-7-methoxyquinazolin-6-yl)oxy)piperidin-1-yl)-6-oxohexanamido)-3,3-dimethylbutanoyl)-4-hydroxy-N-(4-(4-methylthiazol-5-yl)benzyl)pyrrolidine-2-carboxamide] |
| 49 nM | – | COc1cc2ncnc(Nc3ccc(Cl)c(Cl)c3F)c2cc1OC1CCN(C(=O)CCCCCCCCC(=O)N[C@H](C(=O)N2C[C@H](O)C[C@H]2C(=O)NCc2ccc(-c3scnc3C)cc2)C(C)(C)C)CC1 [SIAIS249023, (2S,4R)-1-((S)-2-(10-(4-((4-((3,4-dichloro-2-fluorophenyl)amino)-7-methoxyquinazolin-6-yl)oxy)piperidin-1-yl)-10-oxodecanamido)-3,3-dimethylbutanoyl)-4-hydroxy-N-(4-(4-methylthiazol-5-yl)benzyl)pyrrolidine-2-carboxamide] |
| 240 nM | – | COc1cc2ncnc(Nc3ccc(Cl)c(Cl)c3F)c2cc1OC1CCN(C(=O)CCOCCOCCOCCOCCOCCC(=O)N[C@H](C(=O)N2C[C@H](O)C[C@H]2C(=O)NCc2ccc(-c3scnc3C)cc2)C(C)(C)C)CC1 [SIAIS249028, (2S,4R)-1-((S)-2-(tert-butyl)-22-(4-((4-((3,4-dichloro-2-fluorophenyl)amino)-7-methoxyquinazolin-6-yl)oxy)piperidin-1-yl)-4,22-dioxo-7,10,13,16,19-pentaoxa-3-azadocosan-1-oyl)-4-hydroxy-N-(4-(4-methylthiazol-5-yl)benzyl)pyrrolidine-2-carboxamide] |
| 28.2 nM | – | COc1cc2ncnc(Nc3ccc(Cl)c(Cl)c3F)c2cc1OC1CCN(C(=O)CCOCCOCCOCCNc2cccc3c2C(=O)N(C2CCC(=O)NC2=O)C3=O)CC1 (stereo not shown) [SIAIS249031, 4-((2-(2-(2-(3-(4-((4-((3,4-dichloro-2-fluorophenyl)amino)-7-methoxyquinazolin-6-yl)oxy)piperidin-1-yl)-3-oxopropoxy)ethoxy)ethoxy)ethyl)amino)-2-(2,6-dioxopiperidin-3-yl)isoindoline-1,3-dione] |
| 13 nM | – | COc1cc2ncnc(Nc3ccc(Cl)c(Cl)c3F)c2cc1OC1CCN(C(=O)CCOCCOCCOCCOCCOCCNc2cccc3c2C(=O)N(C2CCC(=O)NC2=O)C3=O)CC1 (stereo not shown) [SIAIS249033, 4-((18-(4-((4-((3,4-dichloro-2-fluorophenyl)amino)-7-methoxyquinazolin-6-yl)oxy)piperidin-1-yl)-18-oxo-3,6,9,12,15-pentaoxaoctadecyl)amino)-2-(2,6-dioxopiperidin-3-yl)isoindoline-1,3-dione] |
| – | 31.3 nM | COc1cc2ncnc(Nc3ccc(F)c(Cl)c3)c2cc1NC(=O)/C=C/CN1CCN(C(=O)CCCCC(=O)N[C@H](C(=O)N2C[C@H](O)C[C@H]2C(=O)NCc2ccc(-c3scnc3C)cc2)C(C)(C)C)CC1 [SIAIS249042, (2S,4R)-1-((S)-2-(6-(4-((E)-4-((4-((3-chloro-4-fluorophenyl)amino)-7-methoxyquinazolin-6-yl)amino)-4-oxobut-2-en-1-yl)piperazin-1-yl)-6-oxohexanamido)-3,3-dimethylbutanoyl)-4-hydroxy-N-(4-(4-methylthiazol-5-yl)benzyl)pyrrolidine-2-carboxamide] |

Reference: patent US12564638B2 (SHANGHAITECH UNIVERSITY, priority 2019, dated 2026)
